Series [1] relates to Pseudomonas aeruginosa (ATCC 27883).
The subject of series [2] is Escherichia coli (ATCC 25922).
Series [3] deals with Methicillin-resistant Staphylococcus aureus MRSA (ATCC BAA-1556).
The next series deals with human red blood cells. Also on record: unit not given beside the values.

Values after ≈ are worked out from the molar mass of the structure shown. Where two headings read alike, the source gives them in different places. Non-standard residues stand in square brackets, D forms with d. Residues, ends and D or L forms follow the SMILES beside them. Dip = N[C@H](C(=O)O)C(c1ccccc1)c1ccccc1; 2Nal = N[C@@H](Cc1ccc2ccccc2c1)C(=O)O

For `N=C(N)NCCC[C@H](NC(=O)[C@H](CCCNC(=N)N)NC(=O)[C@@H](N)CCCNC(=N)N)C(=O)N[C@H](C(=O)N[C@H](C(=O)N[C@H](C(=O)O)C(c1ccccc1)c1ccccc1)C(c1ccccc1)c1ccccc1)C(c1ccccc1)c1ccccc1` [IFX-002-1, NH2-Arg-Arg-Arg-Dip-Dip-Dip-OH] (H-RRR[Dip][Dip][Dip]-OH), the “MIC P. aeruginosa ATCC 27883” value in series [1] (ATCC 27883) stood at 25 µg/mL (≈ 21.6 µM). Also, the “MIC E. coli ATCC 25922” value in series [2] (ATCC 25922) is 6.2 µg/mL (≈ 5.36 µM). Moreover, in series [3] (ATCC BAA-1556), the “MIC MRSA ATCC BAA-1556” value was 3.1 µg/mL (≈ 2.68 µM). For the same compound, the HC50 with human red blood cells is 265. In addition, the “MIC S. aureus ATCC 29213” value against S. aureus ATCC 29213 (ATCC 29213) came to 3.1 µg/mL (≈ 2.68 µM).
In the case of `N=C(N)NCCC[C@@H]1NC(=O)[C@H](CCCNC(=N)N)NC(=O)[C@H](Cc2ccc3ccccc3c2)NC(=O)[C@H](Cc2ccc3ccccc3c2)NC(=O)[C@H](Cc2ccc3ccccc3c2)NC(=O)[C@H](CCCNC(=N)N)NC1=O` [IFX-003, c[Arg-Arg-Arg-NaI-NaI-NaI]] (cyclo([2Nal][2Nal][2Nal]RRR)), the “MIC P. aeruginosa ATCC 27883” value in series [1] (ATCC 27883) is 50 µg/mL (≈ 47.2 µM). Also, the “MIC E. coli ATCC 25922” value in series [2] (ATCC 25922) worked out at 25 µg/mL (≈ 23.6 µM). In addition, in series [3] (ATCC BAA-1556), the “MIC MRSA ATCC BAA-1556” value stood at 6.2 µg/mL (≈ 5.85 µM). The same compound gave an HC50 with human red blood cells of 240. Further, the “MIC S. aureus ATCC 29213” value in the series with S. aureus ATCC 29213 (ATCC 29213) stood at 3.1 µg/mL (≈ 2.92 µM).
Regarding `N=C(N)NCCC[C@@H]1NC(=O)[C@H](CCCNC(=N)N)NC(=O)[C@H](Cc2c[nH]c3ccccc23)NC(=O)[C@H](C(c2ccccc2)c2ccccc2)NC(=O)[C@H](C(c2ccccc2)c2ccccc2)NC(=O)[C@H](CCCNC(=N)N)NC1=O` [IFX-022, c[Arg-Arg-Arg-Dip-Dip-Trp]] (cyclo([Dip][Dip]WRRR)), the HC50 in the series on human red blood cells was determined as 215.
As for `N=C(N)NCCC[C@@H]1NC(=O)[C@H](CCCNC(=N)N)NC(=O)[C@H](Cc2ccc3ccccc3c2)NC(=O)[C@H](Cc2ccc3ccccc3c2)NC(=O)[C@H](Cc2c[nH]c3ccccc23)NC(=O)[C@H](CCCNC(=N)N)NC1=O` [IFX-023, c[Arg-Arg-Arg-Trp-NaI-NaI]] (cyclo(RRRW[2Nal][2Nal])), the HC50 in the series with human red blood cells is listed as 175.
For the compound `N=C(N)NCCC[C@@H]1NC(=O)[C@H](CCCNC(=N)N)NC(=O)[C@H](Cc2ccc3ccccc3c2)NC(=O)[C@H](Cc2c[nH]c3ccccc23)NC(=O)[C@H](Cc2ccc3ccccc3c2)NC(=O)[C@H](CCCNC(=N)N)NC1=O` [IFX-024, c[Arg-Arg-Arg-NaI-Trp-NaI]] (cyclo(RRR[2Nal]W[2Nal])), the HC50 in the series with human red blood cells is given as 250.
As for `N=C(N)NCCC[C@@H]1NC(=O)[C@H](CCCNC(=N)N)NC(=O)[C@H](Cc2c[nH]c3ccccc23)NC(=O)[C@H](Cc2ccc3ccccc3c2)NC(=O)[C@H](Cc2ccc3ccccc3c2)NC(=O)[C@H](CCCNC(=N)N)NC1=O` [IFX-025, c[Arg-Arg-Arg-NaI-NaI-Trp]] (cyclo(RRR[2Nal][2Nal]W)), the HC50 with human red blood cells turned out to be 190.
Consider `N=C(N)NCCC[C@@H]1NC(=O)[C@H](CCCNC(=N)N)NC(=O)[C@H](CCCNC(=N)N)NC(=O)[C@H](C(c2ccccc2)c2ccccc2)NC(=O)[C@H](C(c2ccccc2)c2ccccc2)NC(=O)[C@H](Cc2c[nH]c3ccccc23)NC(=O)[C@H](CCCNC(=N)N)NC1=O` [IFX-026, c[Arg-Arg-Arg-Arg-Trp-Dip-Dip]] (cyclo([Dip][Dip]RRRRW)), for which the HC50 in the series with human red blood cells is on record as 240.
`N=C(N)NCCC[C@@H]1NC(=O)[C@H](CCCNC(=N)N)NC(=O)[C@H](CCCNC(=N)N)NC(=O)[C@H](C(c2ccccc2)c2ccccc2)NC(=O)[C@H](Cc2c[nH]c3ccccc23)NC(=O)[C@H](C(c2ccccc2)c2ccccc2)NC(=O)[C@H](CCCNC(=N)N)NC1=O` [IFX-027, c[Arg-Arg-Arg-Arg-Dip-Trp-Dip]] (cyclo(RRRR[Dip]W[Dip])) returned an HC50 with human red blood cells of 860.
For `N=C(N)NCCC[C@@H]1NC(=O)[C@H](CCCNC(=N)N)NC(=O)[C@H](Cc2c[nH]c3ccccc23)NC(=O)[C@H](C(c2ccccc2)c2ccccc2)NC(=O)[C@H](C(c2ccccc2)c2ccccc2)NC(=O)[C@H](CCCNC(=N)N)NC(=O)[C@H](CCCNC(=N)N)NC1=O` [IFX-028, c[Arg-Arg-Arg-Arg-Dip-Dip-Trp]] (cyclo([Dip][Dip]WRRRR)), the HC50 in the series on human red blood cells was 370.
Consider `N=C(N)NCCC[C@@H]1NC(=O)[C@H](CCCNC(=N)N)NC(=O)[C@H](CCCNC(=N)N)NC(=O)[C@H](Cc2ccc3ccccc3c2)NC(=O)[C@H](Cc2ccc3ccccc3c2)NC(=O)[C@H](Cc2c[nH]c3ccccc23)NC(=O)[C@H](CCCNC(=N)N)NC1=O` [IFX-029, c[Arg-Arg-Arg-Arg-Trp-NaI-NaI]] (cyclo(RRRRW[2Nal][2Nal])), for which the HC50 in the series on human red blood cells is 200.
As for `N=C(N)NCCC[C@@H]1NC(=O)[C@H](CCCNC(=N)N)NC(=O)[C@H](CCCNC(=N)N)NC(=O)[C@H](Cc2ccc3ccccc3c2)NC(=O)[C@H](Cc2c[nH]c3ccccc23)NC(=O)[C@H](Cc2ccc3ccccc3c2)NC(=O)[C@H](CCCNC(=N)N)NC1=O` [IFX-030, c[Arg-Arg-Arg-Arg-NaI-Trp-NaI]] (cyclo(RRRR[2Nal]W[2Nal])), the HC50 in the series with human red blood cells came out at 430.
Turning to “c[Arg-arg-PEG4-Arg-arg-Trp-naI-naI] [IFX-052]”, the “MIC P. aeruginosa ATCC 27883” value in series [1] was determined as 128 µg/mL. Further, the “MIC E. coli ATCC 25922” value in series [2] is 64 µg/mL. The “MIC MRSA ATCC BAA-1556” value in series [3] turned out to be 32 µg/mL. The “MIC S. aureus ATCC 29213” value with S. aureus ATCC 29213 was determined as 32 µg/mL.
Consider “c[PEG1-Arg-Arg-Arg-Arg-Arg-PEG1-Dip-Dip-Dip] [IFX-050-1]”, for which the “MIC P. aeruginosa ATCC 27883” value in series [1] came out at 128 µg/mL. The “MIC E. coli ATCC 25922” value in series [2] came to 32 µg/mL. For the same compound, in series [3], the “MIC MRSA ATCC BAA-1556” value is 32 µg/mL. Further, the “MIC S. aureus ATCC 29213” value with S. aureus ATCC 29213 amounted to 16 µg/mL.
Take “c[PEG1-Arg-Arg-Arg-Arg-PEG1-Dip-Dip-Dip] [IFX-048]”: the “MIC P. aeruginosa ATCC 27883” value in series [1] amounted to 64 µg/mL. For the same compound, the “MIC E. coli ATCC 25922” value in series [2] worked out at 64 µg/mL. Moreover, the “MIC MRSA ATCC BAA-1556” value in series [3] amounted to 16 µg/mL. For the same compound, the “MIC S. aureus ATCC 29213” value in the series with S. aureus ATCC 29213 is 16 µg/mL.
Turning to “c[PEG1-Arg-Arg-Arg-Arg-PEG1-Trp-Trp-Trp-Trp] [IFX-046]”, in series [1], the “MIC P. aeruginosa ATCC 27883” value is 50 µg/mL. Moreover, the “MIC E. coli ATCC 25922” value in series [2] came to 50 µg/mL. For the same compound, the “MIC MRSA ATCC BAA-1556” value in series [3] turned out to be 25 µg/mL. Moreover, the “MIC S. aureus ATCC 29213” value in the series on S. aureus ATCC 29213 is 25 µg/mL.
With “c[PEG2-Arg-Arg-Arg-Arg-Arg-PEG2-Dip-Dip-Dip] [IFX-050-2]”, in series [1], the “MIC P. aeruginosa ATCC 27883” value came out at 128 µg/mL. Moreover, in series [2], the “MIC E. coli ATCC 25922” value turned out to be 64 µg/mL. Also, in series [3], the “MIC MRSA ATCC BAA-1556” value was determined as 16 µg/mL. For the same compound, the “MIC S. aureus ATCC 29213” value against S. aureus ATCC 29213 was 16 µg/mL.
Take “c[PEG2-Arg-Arg-Arg-Arg-PEG2-Dip-Dip-Dip] [IFX-049]”: in series [1], the “MIC P. aeruginosa ATCC 27883” value was found to be 64 µg/mL. In series [2], the “MIC E. coli ATCC 25922” value is 128 µg/mL. The “MIC MRSA ATCC BAA-1556” value in series [3] was 8 µg/mL. Moreover, the “MIC S. aureus ATCC 29213” value against S. aureus ATCC 29213 turned out to be 8 µg/mL.
Consider “c[PEG2-Arg-Arg-Arg-Arg-PEG2-Trp-Trp-Trp-Trp] [IFX-047]”, for which the “MIC P. aeruginosa ATCC 27883” value in series [1] is 50 µg/mL. The “MIC E. coli ATCC 25922” value in series [2] came to 100 µg/mL. Also, in series [3], the “MIC MRSA ATCC BAA-1556” value stood at 50 µg/mL. The “MIC S. aureus ATCC 29213” value in the series with S. aureus ATCC 29213 was found to be 50 µg/mL.
“c[PEG4-Arg-arg-Arg-arg-Trp-naI-naI] [IFX-053]”: the “MIC P. aeruginosa ATCC 27883” value in series [1] was 128 µg/mL. In series [2], the “MIC E. coli ATCC 25922” value was 64 µg/mL. Further, in series [3], the “MIC MRSA ATCC BAA-1556” value was 16 µg/mL. Moreover, in the series with S. aureus ATCC 29213, the “MIC S. aureus ATCC 29213” value was determined as 16 µg/mL.

For the origin of these results see US20220289794A1, “SYNTHETIC ANTIMICROBIAL PEPTIDES” (priority 2019, published 2022).
